Source: US20250082624A1, “METHODS OF TREATING COGNITIVE IMPAIRMENT” (NeuroTherapia, Inc., priority 2023, published 2025)
Entries after “also recorded” stand apart in the source; their conditions may differ.

Key:
[1] = system: APP/PS1 mouse model of AD; settings: cited from earlier work
dogs = assay: Dog toxicity (CNS safety issue raised by FDA); assay type: in vivo; settings: 200 mg/kg/day
[2] = system: plasma biomarkers of inflammation; assay: Plasma biomarkers of inflammation and AD in AD cohort; assay type: in vivo, human; settings: for AB40 Median / AB42 Median / Chitinase-3 Median / IL-1β Median / IL-2 Median / IL-4 Median / IL-5 Median / IL-6 Median / IL-8 Median / IL-10 Median / IL-12p70 Median / IL-22 Median / INFg Median / NF-LIGHT Median / Neurogranin Median / TNFa Median / TREM-2 Median / Total Tau Median / hCRP Median / pTau-181 Median: plasma
Description: Methods: All study procedures were approved by the IRB, and informed consent was obtained. Three cohorts of volunteers 45-80 years of age with well-controlled comorbidities (NOAD) and one cohort of AD patients diagnosed with cognitive impairment consistent with prodromal AD per International Working Group criteria or mild AD per National Institute on Aging—Alzheimer's Association criteria (n=6 active, 2 placebo per cohort) were enrolled. Participants were admitted to the study site for the duration of the dosing and returned 7-12 days after the last dose for a safety visit. Participants received NTRX-07 (10, 30, or 90 mg) or a placebo in a double-blinded randomization orally once daily for seven days. Subjects were assessed for changes in vital signs, including maneuvers to induce lightheadedness, electrocardiograms, 24-hour electroencephalograms (EEG), and safety laboratory studies. The second cohort returned and received a single repeat dose after a standard high-fat meal. The AD cohort also underwent cognitive testing and had blood samples for biomarkers drawn. Subjects had PK sampling done after the first and final dose of the study drug. An independent safety review committee conducted a blinded safety review of adverse events and plasma levels between each cohort.
Assessments: Subjects were assessed for changes in vital signs, orthostatic blood pressure, Romberg test, nystagmus, timed get up and go, electrocardiograms, electroencephalograms (EEG), and laboratory studies. Subjective questionnaires of drug effects (ARCI-M) were administered. Cohort B returned and received a single repeat dose after a standard high-fat meal. The AD cohort also underwent cognitive testing (MMSE, ADAS-COG, MOCA) and had blood samples for biomarkers drawn.
(§1) An informational letter was filed with the FDA to inform them of this study. The study was designed as follows: • 3 healthy cohorts (cohorts A-C) followed by AD cohort (cohort D) treated at MTD • 6 treated, 2 placebos in each cohort • Doses: 10, 30, 90 mg/treatment—latter doses can be adjusted based on PK assessment • In unit, 7 days of treatment • Monitor vertigo with various tests: (1) timed get-up and go, (2) Nystagmus test, (3) Romberg test, and (4) changes in orthostatic blood pressure (Day 1, 3 and 8) • Use 24 hr EEG monitoring for CNS safety assessment • Assess plasma biomarkers of inflammation and AD pre- and post-treatment in AD cohort • Assess changes on cognition post-treatment using MMSE and ADAS-cog • Fed/fasted study to determine food effects on PK as a subset of the Phase 1b
Exploratory endpoints include cognitive testing and potential plasma biomarkers of inflammation. The small group size (6 on treatment, 2 placebo) precludes statistical analysis, but the goals were to gain insights for future study design. Exploratory endpoints include: • MMSE, MOCA & ADAS-COG • IL-12p70, IL-10, IL-4, IL-5, INFg, IL-6, IL-8, IL-22, TNFa, IL-10, hCRP, Chitinase-3, TREM-2, IL-2, Neurogranin, Total Tau, AB42, AB40, NF-LIGHT, pTau-181

[3] = system: volunteers and AD patients; assay: 24-hour EEG safety assessment and post-hoc qEEG analysis; assay type: in vivo, human; settings: AD patients, 90 mg QD 7 days, post hoc exploratory
Procedure: Protocol-specified EEG assessments were for safety assessment of any potential epileptogenic changes. A post-hoc analysis of quantitative EEG (qEEG) changes was also performed.
as §1
No subjects had clinically meaningful abnormal values or changes from baseline, nor differences between placebo and active drug, in EEG readings in any of the 4 cohorts.

healthy volunteers [4] = assay: Phase 1a single ascending dose study; assay type: in vivo, human
healthy volunteers [5] = settings: cited from earlier work
[6] = after 7 days of 90 mg QD, Day 8

SMILES: CC1(Cc2ccccc2)COc2cc(C(=O)N3CCCCC3)ccc21 (stereo not shown) [NTRX-07, 3-benzyl-3-methyl-2,3-dihydrobenzofuran-6-carboxylic acid-piperidine amide]
- Clearance of Aβ ([1]; AD models, FIG. 4): improved clearance of A-beta proteins; also recorded: increases clearance of Aβ
- Aβ plaque clearance ([1]; APP/PS1 (Tg(APPswe,PSEN1dE9)85Dbo) mouse, FIG. 5): promotes Aβ plaque clearance
- CB2 increase / Iba1 colocalization in microglia (microglial activation) ([1]; APP/PS1 mouse model of AD, FIG. 3): returned towards baseline
- Inflammatory changes in the brain ([1]; preclinical AD models): decreased inflammatory changes in the brain
- Long-term potentiation ([1]; preclinical AD models): improved long-term potentiation
- Seizures (dogs): Seizures in 1 or 2 dogs
- Changes in plasma biomarkers ([2]; 90 mg QD 7 days): No significant changes in biomarkers or plasma biomarkers; also recorded: no consistent changes
- AB40 Median ([2]; 90 mg QD, Day 1 (baseline)): 232.84 pg/mL
- AB42 Median ([2]; 90 mg QD, Day 1 (baseline)): 8.29 pg/mL
- Chitinase-3 Median ([2]; 90 mg QD, Day 1 (baseline)): 43668.33 pg/mL
- IL-1β Median ([2]; 90 mg QD, Day 1 (baseline)): 0.13 pg/mL
- IL-2 Median ([2]; 90 mg QD, Day 1 (baseline)): 0.16 pg/mL
- IL-4 Median ([2]; 90 mg QD, Day 1 (baseline)): 1.38 pg/mL
- IL-5 Median ([2]; 90 mg QD, Day 1 (baseline)): 0.17 pg/mL
- IL-6 Median ([2]; 90 mg QD, Day 1 (baseline)): 2.19 pg/mL
- IL-8 Median ([2]; 90 mg QD, Day 1 (baseline)): 7.65 pg/mL
- IL-10 Median ([2]; 90 mg QD, Day 1 (baseline)): 0.35 pg/mL
- IL-12p70 Median ([2]; 90 mg QD, Day 1 (baseline)): 0.34 pg/mL
- IL-22 Median ([2]; 90 mg QD, Day 1 (baseline)): 0.9 pg/mL
- INFg Median ([2]; 90 mg QD, Day 1 (baseline)): 0.08 pg/mL
- NF-LIGHT Median ([2]; 90 mg QD, Day 1 (baseline)): 18.24 pg/mL
- Neurogranin Median ([2]; 90 mg QD, Day 1 (baseline)): 671.19 pg/mL
- TNFa Median ([2]; 90 mg QD, Day 1 (baseline)): 0.69 pg/mL
- TREM-2 Median ([2]; 90 mg QD, Day 1 (baseline)): 38468.67 pg/mL
- Total Tau Median ([2]; 90 mg QD, Day 1 (baseline)): 2.07 pg/mL
- hCRP Median ([2]; 90 mg QD, Day 1 (baseline)): 4135.17 ng/mL
- pTau-181 Median ([2]; 90 mg QD, Day 1 (baseline)): 21.53 pg/ml
- AB40 Median [2, 6]: 226.52 pg/mL
- AB42 Median [2, 6]: 8.57 pg/mL
- Chitinase-3 Median [2, 6]: 40345.17 pg/mL
- IL-1β Median [2, 6]: 0.11 pg/mL
- IL-2 Median [2, 6]: 0 pg/mL
- IL-4 Median [2, 6]: 1.14 pg/mL
- IL-5 Median [2, 6]: 0.19 pg/mL
- IL-6 Median [2, 6]: 2.44 pg/mL
- IL-8 Median [2, 6]: 10.41 pg/mL
- IL-10 Median [2, 6]: 0.38 pg/mL
- IL-12p70 Median [2, 6]: 0.33 pg/mL
- IL-22 Median [2, 6]: 0.87 pg/mL
- INFg Median [2, 6]: 0.08 pg/mL
- NF-LIGHT Median [2, 6]: 18.49 pg/mL
- Neurogranin Median [2, 6]: 881.02 pg/mL
- TNFa Median [2, 6]: 0.83 pg/mL
- TREM-2 Median [2, 6]: 39576.17 pg/mL
- Total Tau Median [2, 6]: 2.03 pg/mL
- hCRP Median [2, 6]: 4211.88 ng/mL
- pTau-181 Median [2, 6]: 20.16 pg/ml
- qEEG mean frequency (AD effect) [3]: treatment partially reversed this AD effect; also recorded: Trend towards improvement; also recorded: partial reversion of AD effect; also recorded: increasing mean frequency
- No adverse events level (healthy volunteers [4]; Phase 1a single ascending dose): 2 mg/kg
- Adverse events in Phase 1a (healthy volunteers [4]; single ascending dose): Only minor, non-dose limiting adverse events
- Adverse effect at high doses (healthy volunteers [5]; single doses of 3.5 and 4 mg/kg): transient lightheadedness
- Major adverse effects (healthy volunteers [5]; single doses up to 2 mg/kg, healthy volunteers): no major adverse effects
